In patent publication US6737383B1, “Herbicidal oxadiazolidines” (priority 1999, dated 2004):

Experiments:
[1] = test system: velvetleaf; test: Test B pre/postemergence velvetleaf; format: in vivo, Abutilon theophrasti
Method in brief: (§1)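 Response is a visual 0-to-10 score relative to untreated plants, where 0 means no effect and 10 means complete control, taken twelve to sixteen days after application. Treatments went onto soil at planting and onto foliage of 1- to 4-leaf plants, using a surfactant-containing non-phytotoxic solvent.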

[2] = test system: corn; test: Test B pre/postemergence corn; format: in vivo, Zea mays
Method in brief: as §1

[3] = test system: rape; test: Test B pre/postemergence rape; format: in vivo, Brassica napus
Method in brief: as §1

[4] = test system: cocklebur; test: Test B pre/postemergence cocklebur; format: in vivo, Xanthium strumarium
Method in brief: as §1

[5] = test system: surinam grass; test: Test B pre/postemergence surinam grass; format: in vivo, Brachiaria decumbens
Method in brief: as §1

[6] = test system: sugar beet; test: Test B pre/postemergence sugar beet; format: in vivo, Beta vulgaris
Method in brief: as §1

[7] = test system: crabgrass; test: Test B pre/postemergence crabgrass; format: in vivo, Digitaria sanguinalis
Method in brief: as §1

[8] = test system: wild oat; test: Test B pre/postemergence wild oat; format: in vivo, Avena fatua
Method in brief: as §1

[9] = test system: blackgrass; test: Test B pre/postemergence blackgrass; format: in vivo, Alopecurus myosuroides
Method in brief: as §1

[10] = test system: purple nutsedge; test: Test B pre/postemergence purple nutsedge; format: in vivo, Cyperus rotundus
Method in brief: as §1

[11] = test system: soybean; test: Test B pre/postemergence soybean; format: in vivo, Glycine max
Method in brief: as §1

[12] = test system: giant foxtail; test: Test B pre/postemergence giant foxtail; format: in vivo, Setaria faberii
Method in brief: as §1

[13] = test system: pigweed; test: Test B pre/postemergence pigweed; format: in vivo, Amaranthus retroflexus
Method in brief: as §1

[14] = test system: wheat; test: Test B pre/postemergence wheat; format: in vivo, Triticum aestivum
Method in brief: as §1

[15] = test system: morningglory; test: Test B pre/postemergence morningglory; format: in vivo, Ipomoea hederacea
Method in brief: as §1

[16] = test system: bedstraw; test: Test B pre/postemergence bedstraw; format: in vivo, Galium aparine; details: for Bedstraw plant response rating: 10 is complete control
Method in brief: as §1

[17] = Postemergence, Rate 62 g/ha, scale of 0 to 10, 0 is no effect, 10 is complete control
[18] = Postemergence, Rate 125 g/ha, scale 0 to 10, 0 is no effect, 10 is complete control
[19] = Postemergence, Rate 500 g/ha, scale 0 to 10, 0 is no effect, 10 is complete control
[20] = Preemergence, Rate 62 g/ha, scale of 0 to 10 where 0 is no effect and 10 is complete control
[21] = Preemergence, Rate 125 g/ha, scale 0 to 10, 0 is no effect, 10 is complete control
[22] = Preemergence, Rate 500 g/ha, scale of 0 to 10 where 0 is no effect and 10 is complete control
[23] = Postemergence, Rate 250 g/ha, scale 0 to 10
[24] = Preemergence, Rate 250 g/ha, scale 0 to 10, 0 is no effect, 10 is complete control

COC(=O)CCCn1c(=O)on(C(=O)N(c2ccc(F)cc2F)C(C)C)c1=O [Compound 513]
Velvetleaf plant response rating [1, 17]: 3
Velvetleaf plant response rating [1, 18]: 3
Plant response rating, Velvetleaf [1, 19]: 7
Plant response rating, Velvetleaf [1, 20]: 0
Velvetleaf plant response rating [1, 21]: 0
Velvetleaf plant response rating [1, 22]: 0
Corn plant response rating [2, 17]: 0
Corn plant response rating [2, 18]: 0
Corn plant response rating [2, 23]: 0
Plant response rating, Corn [2, 19]: 3
Plant response rating, Corn [2, 20]: 0
Corn plant response rating [2, 21]: 0
Corn plant response rating [2, 22]: 4
Rape plant response rating [3, 17]: 0
Rape plant response rating [3, 18]: 4
Plant response rating, Rape [3, 19]: 7
Plant response rating, Rape [3, 20]: 0
Rape plant response rating [3, 21]: 2
Rape plant response rating [3, 22]: 7
Cocklebur plant response rating [4, 17]: 3
Cocklebur plant response rating [4, 18]: 3
Cocklebur plant response rating [4, 23]: 6
Plant response rating, Cocklebur [4, 19]: 7
Plant response rating, Cocklebur [4, 20]: 0
Cocklebur plant response rating [4, 21]: 0
Cocklebur plant response rating [4, 24]: 0
Cocklebur plant response rating [4, 22]: 0
B. signalgrass plant response rating [5, 17]: 0
B. signalgrass plant response rating [5, 18]: 3
B. signalgrass plant response rating ([5]; Postemergence, Rate 250 g/ha, scale 0 to 10, 0 no effect, 10 complete control): 6
Plant response rating, B. signalgrass [5, 19]: 8
Plant response rating, B. signalgrass [5, 20]: 0
B. signalgrass plant response rating [5, 21]: 0
B. signalgrass plant response rating [5, 24]: 5
B. signalgrass plant response rating ([5]; Preemergence, Rate 500 g/ha, scale 0 to 10, 0 is no effect, 10 is complete control): 9
Sugarbeets plant response rating [6, 17]: 2
Sugarbeets plant response rating [6, 18]: 4
Plant response rating, Sugarbeets [6, 19]: 7
Plant response rating, Sugarbeets [6, 20]: 0
Sugarbeets plant response rating [6, 21]: 0
Sugarbeets plant response rating [6, 22]: 0
Crabgrass plant response rating [7, 17]: 1
Crabgrass plant response rating [7, 18]: 4
Crabgrass plant response rating [7, 23]: 6
Plant response rating, Crabgrass [7, 19]: 9
Plant response rating, Crabgrass [7, 20]: 4
Crabgrass plant response rating [7, 21]: 4
Crabgrass plant response rating [7, 22]: 5
Wild oats plant response rating [8, 17]: 0
Wild oats plant response rating [8, 18]: 4
Plant response rating, Wild oats [8, 19]: 6
Plant response rating, Wild oats [8, 20]: 3
Wild oats plant response rating [8, 21]: 3
Wild oats plant response rating [8, 22]: 10
Blackgrass plant response rating [9, 17]: 4
Blackgrass plant response rating [9, 18]: 4
Blackgrass plant response rating [9, 23]: 8
Plant response rating, Blackgrass [9, 19]: 8
Plant response rating, Blackgrass [9, 20]: 1
Blackgrass plant response rating [9, 21]: 4
Blackgrass plant response rating [9, 24]: 4
Blackgrass plant response rating [9, 22]: 10
Nutsedge plant response rating [10, 17]: 0
Nutsedge plant response rating [10, 18]: 0
Plant response rating, Nutsedge [10, 19]: 5
Plant response rating, Nutsedge [10, 20]: 0
Nutsedge plant response rating [10, 21]: 0
Nutsedge plant response rating [10, 22]: 0
Soybean plant response rating [11, 17]: 1
Soybean plant response rating [11, 18]: 7
Plant response rating, Soybean [11, 19]: 8
Plant response rating, Soybean [11, 20]: 0
Soybean plant response rating [11, 21]: 0
Soybean plant response rating [11, 22]: 5
Giant foxtail plant response rating [12, 17]: 1
Giant foxtail plant response rating [12, 18]: 5
Plant response rating, Giant foxtail [12, 19]: 8
Plant response rating, Giant foxtail [12, 20]: 2
Giant foxtail plant response rating [12, 21]: 6
Giant foxtail plant response rating [12, 22]: 10
Redroot pigweed plant response rating [13, 17]: 3
Redroot pigweed plant response rating [13, 18]: 6
Plant response rating, Redroot pigweed [13, 19]: 7
Plant response rating, Redroot pigweed [13, 20]: 7
Redroot pigweed plant response rating [13, 21]: 7
Redroot pigweed plant response rating [13, 22]: 10
Wheat plant response rating [14, 17]: 3
Wheat plant response rating [14, 18]: 5
Plant response rating, Wheat [14, 19]: 6
Plant response rating, Wheat [14, 20]: 0
Wheat plant response rating [14, 21]: 2
Wheat plant response rating [14, 22]: 7
Morningglory plant response rating [15, 17]: 3
Morningglory plant response rating [15, 18]: 3
Plant response rating, Morningglory [15, 19]: 9
Plant response rating, Morningglory [15, 20]: 0
Morningglory plant response rating [15, 21]: 0
Morningglory plant response rating [15, 22]: 3
Bedstraw plant response rating ([16]; Postemergence, Rate 62 g/ha, scale of 0 to 10, 0 is no effect): 6
Plant response rating, Bedstraw [16, 20]: 0
Bedstraw plant response rating ([16]; Preemergence, Rate 250 g/ha, scale 0 to 10, 0 is no effect): 0
Bedstraw plant response rating ([16]; Preemergence, Rate 500 g/ha, scale 0 to 10, 0 is no effect): 4
